Assay results reported in patent US20080194585A1, “Fungicidal Pyrazine Derivatives” (priority 2005, published 2008).
Marks after values point to notes of the source that are not given here.

What was measured:
Sclerotinia sclerotiorum = assay: Test C: cucumber white mold, preventive spray on cucumber seedlings; conditions: 200 ppm
[1] = tested on: Erysiphe graminis f. sp. tritici; assay: Test L: wheat powdery mildew, preventive spray on wheat seedlings
Septoria tritici = assay: Test J: wheat leaf blotch, preventive spray on wheat seedlings; type: in vivo
Text: A dash (-) indicates no test results.

Septoria nodorum = assay: Test H: wheat glum blotch, preventive spray on wheat seedlings
Experimental: (the causal agent of wheat glum blotch) and incubated in a saturated atmosphere at 20° C. for 48 h, and then moved to a growth chamber at 22° C. for 5 days, after which disease ratings were made.

Rhizoctonia oryzae = assay: Test G: turf brown patch, preventive spray on creeping bent grass seedlings
Experimental: (the causal agent of turf brown patch) and incubated in a saturated atmosphere at 27° C. for 24 h, and then moved to a growth chamber at 27° C. for 5 days, after which disease ratings were made.

Plasmopara viticola = assay: Test D: grape downy mildew, spray after inoculation of grape seedlings; type: in vivo; conditions: 200 ppm
Text: Upon removal, disease ratings were made. […] A dash (-) indicates no test results.

Botrytis cinerea = assay: Test E: tomato botrytis, preventive spray on tomato seedlings
Phytophthora infestans = assay: whole plant or invertebrate; type: in vivo; conditions: 200 ppm
Pythium aphanidermatum = assay: Test A: bluegrass pythium blight, preventive spray on bluegrass seedlings; conditions: 200 ppm
[2] = tested on: Puccinia recondita f. sp. tritici; assay: Test K: wheat leaf rust, preventive spray on wheat seedlings
fusarium graminearium = assay: Test I: wheat head scab, preventive spray on wheat seedlings; conditions: 200 ppm
Experimental: (the causal agent of wheat head scab) and incubated in a saturated atmosphere at 20° C. for 72 h, and then moved to a growth chamber at 22° C. for 5 days, after which disease ratings were made.

[3] = tested on: Colletotrichum orbiculare; assay: Test B: cucumber Colletotrichum anthracnose, preventive spray on cucumber seedlings

Row | SMILES | Test C disease control rating (Sclerotinia sclerotiorum) | Test L disease control rating ([1]; 40 ppm (*)) | Test J disease control rating (Septoria tritici; 40 ppm (*)) | Test H disease control rating (Septoria nodorum; 40 ppm (*)) | Test G disease control rating (Rhizoctonia oryzae; 40 ppm (*)) | Test D disease control rating (Plasmopara viticola) | Test E disease control rating (Botrytis cinerea; 40 ppm (*)) | Test F disease control rating (Phytophthora infestans) | Test A disease control rating (Pythium aphanidermatum) | Test K disease control rating ([2]; 40 ppm (*)) | Test I disease control rating (fusarium graminearium) | Test B disease control rating ([3]; 40 ppm (*)) | Test L disease control rating ([1]; 200 ppm) | Test J disease control rating (Septoria tritici; 200 ppm) | Test H disease control rating (Septoria nodorum; 200 ppm) | Test G disease control rating (Rhizoctonia oryzae; 200 ppm) | Test E disease control rating (Botrytis cinerea; 200 ppm) | Test K disease control rating ([2]; 200 ppm) | Test B disease control rating ([3]; 200 ppm)
1 | O=c1c(-n2cncn2)nc(Cl)c(-c2c(F)cccc2F)n1CC1CCCO1 (stereo not drawn) [compound 92] | 0% | 0* % | 7* % | 0* % | 0* % | 0% | 0* % | 0% | 0% | 0* % | 0% | 0* % |  |  |  |  |  |  | 
2 | COCC(C)n1c(-c2c(F)cccc2F)c(Cl)nc(-n2cccn2)c1=O (stereo not drawn) [compound 93] | 0% | 97* % | 83* % | 96* % | 70* % | 0% | 79* % | 60% | 0% | 98* % | 0% | 0* % |  |  |  |  |  |  | 
3 | COCC(C)n1c(-c2c(F)cccc2F)c(Cl)nc(-n2cncn2)c1=O (stereo not drawn) [compound 94] | 0% | 0* % | 14* % | 0* % | 0* % | 0% | 0* % | 0% | 0% | 0* % | 0% | 0* % |  |  |  |  |  |  | 
4 | COCCn1c(-c2c(F)cccc2F)c(Cl)nc(-n2cncn2)c1=O [compound 96] | 0% | 0* % | 0* % | 0* % | 0* % | 0% | 0* % | 0% | 0% | 0* % | 0% | 0* % |  |  |  |  |  |  | 
5 | CSCCn1c(-c2c(F)cccc2F)c(Cl)nc(-n2cccn2)c1=O [compound 97] | 0% | 0* % | 24* % | 0* % | 0* % | 64% | 100* % | 0% | 0% | 0* % | 0% | 0* % |  |  |  |  |  |  | 
6 | CSCCn1c(-c2c(F)cccc2F)c(Cl)nc(-n2cncn2)c1=O [compound 98] | 0% | 0* % | 26* % | 0* % | 0* % | 0% | 0* % | 0% | 0% | 0* % | 0% | 0* % |  |  |  |  |  |  | 
7 | O=c1c(-n2cccn2)nc(Cl)c(-c2c(F)cccc2F)n1Cc1ccccc1 [compound 104] | 0% |  |  |  |  | 9% |  | 0% | 0% |  | 0% |  | 100% | 100% | 100% | 95% | 100% | 100% | 100%
8 | COc1cc(OC)c(-c2c(Cl)nc(-n3cncn3)c(=O)n2CC(C)C)c(OC)c1 [compound 112] | 0% | 0* % | 0* % | 0* % | 0* % | 0% | 0* % | 0% | 0% | 0* % | 57% | 0* % |  |  |  |  |  |  | 
9 | CC(C)Cn1c(-c2c(F)cccc2C(F)(F)F)c(Cl)nc(-n2cncn2)c1=O [compound 113] | 93% | 0* % | 2* % | 0* % | 26* % | 0% | 0* % | 0% | 0% | 0* % | 98% | 0* % |  |  |  |  |  |  | 
10 | CC(C)Cn1c(-c2ccc3c(c2)OCO3)c(Cl)nc(-n2cncn2)c1=O [compound 114] | 0% | 0* % | 89* % | 99* % | 0* % | 0% | 97* % | 0% | 0% | 0* % | 0% | 0* % |  |  |  |  |  |  | 
11 | CC(C)Cn1c(-c2cc(Br)c3c(c2)OCO3)c(Cl)nc(-n2cncn2)c1=O [compound 115] | 0% | 0* % | 0* % | 0* % | 0* % | 0% | 0* % | 0% | 0% | 0* % | 0% | 0* % |  |  |  |  |  |  | 
12 | CC(C)Cn1c(-c2cc(Cl)cc(Cl)c2)c(Cl)nc(-n2cncn2)c1=O [compound 116] | 0% | 0* % | 5* % | 0* % | 0* % | 0% | 0* % | 53% | 0% | 0* % | 0% | 0* % |  |  |  |  |  |  | 
13 | CC(C)Cn1c(-c2ccc(C(F)(F)F)cc2F)c(Cl)nc(-n2cncn2)c1=O [compound 117] | 0% | 0* % | 2* % | 0* % | 0* % | 0% | 0* % | 0% | 0% | 0* % | 83% | 0* % |  |  |  |  |  |  | 
